Drawing on patent publication US20230321253A1, “BIFUNCTIONAL COMPOUNDS AND PHARMACEUTICAL USES THEREOF” (RISEN (SUZHOU) PHARMA TECH CO., LTD., priority 2022, published 2023), this text covers IC50, inhibition and DC50 for 17 molecules.

In one assay the test system is Aspc-1 cells. The assay is described as follows: Cell proliferation study in Aspc-1 cells (Cell Titer Glo). As to conditions: Homo sapiens, ASPC1, 72 hours, read-out: IC50, inhibitory effect on cellular proliferation. Format: cell-based. Here is the method:
Aspc-1 (Cobioer, CBP60546) cells were grown in RPMI 1640 (Gibco, 61870127) supplemented with 10% fetal bovine serum (Gibco, 10099141), 1% penicillin-streptomycin (Gibco, 15070-063). Aspc-1 cells in exponential growth phase were seeded into 96-well plate (Corning, 3599) at density of 4×10^3/well. Cells were cultured overnight at 37° C. with 5% CO2. On the next day, cells were treated with test compound at various concentrations for 72 hours in 37° C., 5% CO2 incubator (final DMSO concentration was 0.1%). After treatment, 100 μL Cell Tier Glo (Promega, G7573) was added to every well of the cell plates and the plates were incubated at room temperature (RT) for 10 minutes. Cell growth status was measured with Cell Tier Glo (Promega, G7573) following the manufacturer's instructions. The inhibition curve was obtained with GraphPad 7.0 software using four-parameter equation.

The target in the next assay is T1, KRAS-G12D protein (Homo sapiens, UniProt P01116, G12D).
T1 construct: host or cells: Aspc-1 cells
The assay is described as follows: KRAS-G12D protein degradation study in Aspc-1 cells (western blot). In kind it is cell-based. As to conditions: for inhibition at 0.1 µM / inhibition at 0.05 µM: ASPC1, 24 h, 24 hours; for inhibition at 0.1 µM: Aspc-1 cells treated with 0.1 μM compound, read-out: Rate of protein degradation (KRAS^G12D); for DC50: Aspc-1 cells, read-out: DC50 of test compound-induced KRAS^G12D protein degradation; for inhibition at 0.05 µM: Aspc-1 cells treated with 50 nM compound, read-out: Rate of degradation (KRAS^G12D). The gist of the method: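 AsPC-1 cells were treated with compound for 24 h at 37° C (0.1% DMSO final), then lysed; KRAS levels measured by western blot. Degradation % = 1 − (KRAS/GAPDH, compound) ÷ (KRAS/GAPDH, DMSO), ×100; DC50 derived from concentration curves.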

Each structure is given as a SMILES string. Some results are limits rather than exact numbers.

T1 sequence (P01116 1-188 isoform P01116-2 G12D): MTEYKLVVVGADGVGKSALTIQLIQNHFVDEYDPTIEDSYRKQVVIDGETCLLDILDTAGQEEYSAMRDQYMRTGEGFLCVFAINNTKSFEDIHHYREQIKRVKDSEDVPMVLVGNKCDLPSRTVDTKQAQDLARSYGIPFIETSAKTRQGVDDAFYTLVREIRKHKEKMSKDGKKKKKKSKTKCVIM

On to `C#Cc1c(F)ccc2cc(O)cc(-c3ncc4c(N5CC6CCC(C5)N6)nc(OCC5(CN6CCC(C(=O)N7CCC8(CC7)CC(N7CCC(c9ccc%10c(C%11CCC(=O)NC%11=O)nn(C)c%10c9)CC7)C8)CC6)CC5)nc4c3F)c12` (stereo not shown) [Compound 111], for which the IC50 with Aspc-1 cells was < 100 nM. Besides, on KRAS-G12D protein, the inhibition at 0.1 µM is > 60% and the DC50 is < 10 nM.

`C#Cc1c(F)ccc2cc(O)cc(-c3ncc4c(N5CC6CCC(C5)N6)nc(OCC5(CN6CCC7(CC6)CC(N6CCC(c8ccc9c(C%10CCC(=O)NC%10=O)nn(C)c9c8)CC6)C7)CC5)nc4c3F)c12` (stereo not shown) [Compound 112]: in the assay with Aspc-1 cells, the IC50 was < 100 nM. For the same molecule, on KRAS-G12D protein, the inhibition at 0.1 µM was > 60% and the 50% degradation concentration (DC50) is < 10 nM.

`C#Cc1c(F)ccc2cc(O)cc(-c3ncc4c(N5CC6CCC(C5)N6)nc(OCC5(CN6CCC(C(=O)N7CCC(N8CCC(c9ccc%10c(C%11CCC(=O)NC%11=O)nn(C)c%10c9)CC8)CC7)CC6)CC5)nc4c3F)c12` (stereo not shown) [Compound 129]: the IC50 with Aspc-1 cells is < 100 nM. At KRAS-G12D protein, the inhibition at 0.05 µM is > 60% and the DC50 was < 10 nM.

On to `C#Cc1c(F)ccc2cc(O)cc(-c3ncc4c(N5CC6CCC(C5)N6)nc(OCC5(CN6CCC(CN7CCC(c8ccc9c(C%10CCC(=O)NC%10=O)nn(C)c9c8)CC7)CC6)CC5)nc4c3F)c12` (stereo not shown) [Compound 133], for which, in the assay on Aspc-1 cells, the IC50 is < 100 nM. On KRAS-G12D protein, the inhibition at 0.05 µM is > 60% and the DC50 is < 10 nM.

For the molecule `C#Cc1c(F)ccc2cc(O)cc(-c3ncc4c(N5CC6CCC(C5)N6)nc(OCC5(CN6CCC(CN7CCN(c8cccc9c8C(=O)N(C8CCC(=O)NC8=O)C9=O)CC7)CC6)CC5)nc4c3F)c12` (stereo not shown) [Compound 135], the IC50 in the assay with Aspc-1 cells was < 100 nM. Also, on KRAS-G12D protein, the inhibition at 0.05 µM lay within 31 to 60% and the DC50 was < 10 nM.

For `C#Cc1c(F)ccc2cc(O)cc(-c3ncc4c(N5CC6CCC(C5)N6)nc(OCC5(CN6CCC(CN7CCC(c8ccc9c(c8)CN(C8CCC(=O)NC8=O)C9=O)CC7)CC6)CC5)nc4c3F)c12` (stereo not shown) [Compound 146], the IC50 in the assay with Aspc-1 cells was < 100 nM. In addition, on KRAS-G12D protein, the inhibition at 0.05 µM is > 60% and the DC50 was < 10 nM.

As to `C#Cc1c(F)ccc2cc(O)cc(-c3ncc4c(N5CC6CCC(C5)N6)nc(OCC5(CN6CCC(CCN7CCC(c8ccc9c(C%10CCC(=O)NC%10=O)nn(C)c9c8)CC7)CC6)CC5)nc4c3F)c12` (stereo not shown) [Compound 149], in the assay on Aspc-1 cells, the IC50 was < 100 nM. On KRAS-G12D protein, the inhibition at 0.05 µM was > 60% and the DC50 is < 10 nM.

As to `C#Cc1c(F)ccc2cc(O)cc(-c3ncc4c(N5CC6CCC(C5)N6)nc(OCC5(CN6CCC7(CC6)CC(N6CCN(c8ccc(NC9CCC(=O)NC9=O)cc8F)CC6)C7)CC5)nc4c3F)c12` (stereo not shown) [Compound 150], the IC50 in the assay on Aspc-1 cells was < 100 nM. In addition, at KRAS-G12D protein, the inhibition at 0.05 µM is > 60% and the DC50 is < 10 nM.

Take `C#Cc1c(F)ccc2cc(O)cc(-c3ncc4c(N5CC6CCC(C5)N6)nc(OCC5(CN6CCC7(CC6)CC(N6CCN(c8ccc9c(c8)C(=O)N(C8CCC(=O)NC8=O)C9=O)CC6)C7)CC5)nc4c3F)c12` (stereo not shown) [Compound 154]: the IC50 with Aspc-1 cells is < 100 nM. On KRAS-G12D protein, the inhibition at 0.05 µM is > 60% and the DC50 is < 10 nM.

Consider `C#Cc1c(F)ccc2cc(O)cc(-c3ncc4c(N5CC6CCC(C5)N6)nc(OCC5(CN6CCCN(C(=O)CN7CCC(c8ccc9c(C%10CCC(=O)NC%10=O)nn(C)c9c8)CC7)CC6)CC5)nc4c3F)c12` (stereo not shown) [Compound 155], for which the IC50 in the assay with Aspc-1 cells is < 100 nM. Besides, at KRAS-G12D protein, the inhibition at 0.05 µM was > 60% and the DC50 fell in the range of 11 to 50 nM.

Regarding `CCc1c(F)ccc2cc(O)cc(-c3ncc4c(N5CC6CCC(C5)N6)nc(OCC5(CN6CCC(C(=O)N7CCC8(CC7)CC(N7CCC(c9ccc%10c(C%11CCC(=O)NC%11=O)nn(C)c%10c9)CC7)C8)CC6)CC5)nc4c3F)c12` (stereo not shown) [Compound 156], the IC50 in the assay on Aspc-1 cells is < 100 nM. Moreover, on KRAS-G12D protein, the inhibition at 0.05 µM was in the range of 31 to 60% and the DC50 is < 10 nM.

Take `C#Cc1c(F)ccc2cc(O)cc(-c3ncc4c(N5CC6CCC(C5)N6)nc(OCC5(CN6CCC7(CC6)CC(N6CCC(c8cccc9c8CN(C8CCC(=O)NC8=O)C9=O)CC6)C7)CC5)nc4c3F)c12` (stereo not shown) [Compound 157]: the IC50 in the assay on Aspc-1 cells was in the range of 101 to 1000 nM. On KRAS-G12D protein, the inhibition at 0.05 µM fell in the range of 11 to 30% and the DC50 was > 200 nM.

As for `C#Cc1c(F)ccc2cc(O)cc(-c3ncc4c(N5CC6CCC(C5)N6)nc(OCC5(CN6CCC7(CC6)CC(N6CCC(c8ccc9c%10c(cccc8%10)C(=O)N9C8CCC(=O)NC8=O)CC6)C7)CC5)nc4c3F)c12` (stereo not shown) [Compound 158], the IC50 in the assay on Aspc-1 cells is < 100 nM. Also, at KRAS-G12D protein, the inhibition at 0.05 µM is > 60% and the DC50 is < 10 nM.

`CCc1c(F)ccc2cc(O)cc(-c3ncc4c(N5CC6CCC(C5)N6)nc(OCC5(CN6CCC7(CC6)CC(N6CCC(c8ccc9c(C%10CCC(=O)NC%10=O)nn(C)c9c8)CC6)C7)CC5)nc4c3F)c12` (stereo not shown) [Compound 160]: in the assay on Aspc-1 cells, the IC50 is < 100 nM. In addition, at KRAS-G12D protein, the inhibition at 0.05 µM is > 60% and the DC50 was < 10 nM.

For the molecule `C#Cc1c(F)ccc2cc(O)cc(-c3ncc4c(N5CC6CCC(C5)N6)nc(OCC5(CN6CCC7(CC6)CC(N6CCC(c8ccc9c(c8)n(C)c(=O)n9C8CCC(=O)NC8=O)CC6)C7)CC5)nc4c3F)c12` (stereo not shown) [Compound 164], the IC50 in the assay with Aspc-1 cells is < 100 nM. Moreover, at KRAS-G12D protein, the inhibition at 0.05 µM is > 60% and the DC50 was < 10 nM.

With `C#Cc1c(F)ccc2cc(O)cc(-c3ncc4c(N5CC6CCC(C5)N6)nc(OCC5(CN6CCC(CN7CCC(c8ccc9c%10c(cccc8%10)C(=O)N9C8CCC(=O)NC8=O)CC7)CC6)CC5)nc4c3F)c12` (stereo not shown) [Compound 168], the IC50 in the assay on Aspc-1 cells is < 100 nM. Besides, on KRAS-G12D protein, the inhibition at 0.05 µM was > 60%.

With `C#Cc1c(F)ccc2cc(O)cc(-c3ncc4c(N5CC6CCC(C5)N6)nc(OCC5(CN6CC7(CC(N8CCC(c9ccc%10c(C%11CCC(=O)NC%11=O)nn(C)c%10c9)CC8)C7)C6)CC5)nc4c3F)c12` (stereo not shown) [Compound 169], the IC50 in the assay on Aspc-1 cells was < 100 nM. At KRAS-G12D protein, the inhibition at 0.05 µM is > 60%.
